Measured values from ChEMBL document CHEMBL1201862, “PubChem BioAssay data set” (2004).
The source made the active and inactive calls.

Assays:
Fibrinogen beta chain [1] = molecular target: T1, Fibrinogen beta chain (Homo sapiens, UniProt P02675); assay: Fluorescence polarization-based biochemical high throughput dose response assay to identify inhibitors that disrupt the binding of a cyclic peptide (Tn7) to the fibrin proteolytic product D-Dimer and fragment E complex [DD(E )].
Fibrinogen beta chain [2] = molecular target: T1, Fibrinogen beta chain; assay: Fluorescence polarization-based biochemical high throughput dose response assay to identify inhibitors that disrupt the binding of a cyclic peptide (Tn6) to the fibrin proteolytic product D-Dimer and fragment E complex [DD(E )].
[3] = T. brucei MetRS inhibitors, orthogonal readout, late-stage follow-up, orthogonal assay for T. brucei MetRS inhibitor project, biochemical, fluorescence polarization, dose response (AID 686969)
[4] = Late stage counterscreen for inhibitors of Trypanosoma brucei methionyl tRNA synthetase (MetRS): Luminescence-based cell-based high throughput dose response assay to identify compounds that are cytotoxic to Jurkat human T lymphocyte cells.; type: functional
[5] = Counterscreen for inhibitors of Trypanosoma brucei methionyl tRNA synthetase (MetRS): Luminescence-based cell-based high throughput dose response assay to identify compounds that are cytotoxic to Jurkat human T lymphocyte cells.; type: functional
[6] = molecular target: T2, Methionyl-tRNA synthetase, putative (Trypanosoma brucei brucei, UniProt Q38C91); type: functional, Trypanosoma brucei brucei strain 927/4 GUTat10.1
T2 sequence (Q38C91 whole entry): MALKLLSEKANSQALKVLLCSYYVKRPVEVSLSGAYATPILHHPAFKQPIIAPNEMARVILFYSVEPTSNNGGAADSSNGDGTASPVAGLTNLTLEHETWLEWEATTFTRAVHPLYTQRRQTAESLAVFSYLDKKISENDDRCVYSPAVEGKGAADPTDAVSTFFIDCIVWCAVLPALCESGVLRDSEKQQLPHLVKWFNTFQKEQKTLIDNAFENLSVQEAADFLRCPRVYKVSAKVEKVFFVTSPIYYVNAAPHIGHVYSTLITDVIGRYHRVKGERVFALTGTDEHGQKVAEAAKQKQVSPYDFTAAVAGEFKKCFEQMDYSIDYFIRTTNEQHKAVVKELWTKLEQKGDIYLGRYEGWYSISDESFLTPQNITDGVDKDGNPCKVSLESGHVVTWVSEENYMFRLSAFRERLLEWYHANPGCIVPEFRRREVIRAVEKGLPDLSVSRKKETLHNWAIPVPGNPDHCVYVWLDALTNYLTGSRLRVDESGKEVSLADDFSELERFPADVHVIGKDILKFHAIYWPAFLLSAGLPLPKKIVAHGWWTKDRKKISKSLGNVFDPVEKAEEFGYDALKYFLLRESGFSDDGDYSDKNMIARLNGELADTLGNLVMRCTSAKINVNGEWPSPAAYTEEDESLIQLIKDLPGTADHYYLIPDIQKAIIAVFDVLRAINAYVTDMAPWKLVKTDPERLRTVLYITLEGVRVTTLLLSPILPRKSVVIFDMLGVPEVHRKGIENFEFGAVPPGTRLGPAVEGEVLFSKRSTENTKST

[7] = molecular target: T2, Methionyl-tRNA synthetase, putative; type: functional, Trypanosoma brucei brucei strain 927/4 GUTat10.1; remark: listed apart in the source
Transthyretin = Transthyretin (Homo sapiens, UniProt P02766); assay: Luminescence-based cell-based high throughput dose response assay to identify activators of Transthyretin (TTR) transcription.; type: functional
[8] = Mtb BioA inhibitors by displacement, dose response, biochemical, coupled fluorescence displacement, 20-point, dry powder (AID 743357); type: functional
[9] = molecular target: T3, Carboxy-terminal domain RNA polymerase II polypeptide A small phosphatase 1 (Homo sapiens, UniProt Q9GZU7); assay: inhibitors of CTDSP1, concentration-response testing, biochemical assay, absorbance-based, actives from ultra-high-throughput screening (AID 540297); type: functional
T3 sequence (Q9GZU7 whole entry): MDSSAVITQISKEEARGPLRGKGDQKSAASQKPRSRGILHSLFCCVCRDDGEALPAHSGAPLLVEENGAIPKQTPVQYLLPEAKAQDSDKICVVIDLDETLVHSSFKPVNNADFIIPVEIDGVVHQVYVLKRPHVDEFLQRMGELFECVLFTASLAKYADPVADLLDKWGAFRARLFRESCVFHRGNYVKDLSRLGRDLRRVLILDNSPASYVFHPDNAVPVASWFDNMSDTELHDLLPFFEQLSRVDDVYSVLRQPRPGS

[10] = THP-1 cell cytotoxicity, dose response, cytotoxicity control for Vif-APOBEC3G degradation inhibitor project, THP-1 cells (AID 1117359); type: functional; conditions: Human immunodeficiency virus 1, THP-1
Protein Tat = Protein Tat (Human immunodeficiency virus type 1 group M subtype B (isolate HXB2)(HIV-1), UniProt P04608); type: functional;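 note: tat binding to TAR RNA read out by fluorescence polarization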
Chain of Protein Tat (P04608 whole entry): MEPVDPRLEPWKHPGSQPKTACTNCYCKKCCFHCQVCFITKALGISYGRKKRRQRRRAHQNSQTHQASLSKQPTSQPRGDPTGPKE

[11] = SNB-75 astrocytoma cell viability loss, late-stage follow-up, mechanism study for HRAS target identification, CellTiter-Glo ATP luminescence, several timepoints, dry powder (AID 720624); type: functional, cell-based
[12] = CCRF-CEM leukemia cell viability loss, dose response, HRAS target identification, CellTiter-Glo ATP luminescence, 8/24/48 h, dry powder (AID 720607); type: functional, cell-based
[13] = LOX IMVI melanoma cell viability loss, dose response, HRAS target identification, CellTiter-Glo ATP luminescence, 8/24/48 h, dry powder (AID 720602); type: functional, cell-based
[14] = HT-29 colorectal cell cytotoxicity over time, dose response, HRas target identification project, CellTiter-Glo, multiple timepoints, dry powder (AID 720598); type: functional, cell-based
[15] = SR lymphoma cell viability over time, late-stage follow-up, mechanism study for HRAS target identification, CellTiter-Glo ATP luminescence, 8-48 h, dry powder (AID 720608); type: functional, cell-based
[16] = cytotoxicity in HepG2 cells, dose response, cytotoxicity control, cell-based, plate reader, dry powder (AID 651947); type: functional
[17] = P. falciparum 3D7-ScDHODH growth inhibitors, dose response, SYBR Green, dry powder samples (AID 1159570); type: functional, cell-based;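 note: parasite growth measured after 72 hours of compound exposure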
[18] = P. falciparum ATP4 D1247Y mutant growth inhibitors, dose response, NITD609-resistant line, SYBR Green, dry powder (AID 1159571); type: functional, cell-based;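 note: parasites synchronized at ring stage by sorbitol before testing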
[19] = HepG2 cell cytotoxicity, dose response, cytotoxicity control, cherry-picked samples (AID 1159577); type: functional, cell-based
[20] = P. falciparum Dd2 growth inhibitors, dose response, SYBR Green, cherry-picked samples (AID 1159567); type: functional, cell-based
[21] = P. falciparum Dd2 growth inhibitors, dose response, SYBR Green, dry powder samples (AID 1159566); type: functional, cell-based;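 note: potency for growth inhibition with lower SYBR green DNA signal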
[22] = HepG2 cell cytotoxicity, dose response, cytotoxicity control, plate reader, dry powder samples (AID 1159569); type: functional, cell-based;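 note: inhibitor potency with signal falling toward the positive control level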
[23] = HeLa cell cytotoxicity, dose response, cytotoxicity control, 24 h, plate reader, powder samples, set 3 (AID 651864); type: functional, cell-based
[24] = molecular target: T4, Low molecular weight phosphotyrosine protein phosphatase (Homo sapiens, UniProt P24666); assay: LMPTP phosphatase inhibitors, colorimetric pNPP readout, dose response, orthogonal assay, biochemical, absorbance, pNPP substrate, LMPTP-A isoform, set 2 (AID 743308); type: functional
T4 sequence (P24666 whole entry): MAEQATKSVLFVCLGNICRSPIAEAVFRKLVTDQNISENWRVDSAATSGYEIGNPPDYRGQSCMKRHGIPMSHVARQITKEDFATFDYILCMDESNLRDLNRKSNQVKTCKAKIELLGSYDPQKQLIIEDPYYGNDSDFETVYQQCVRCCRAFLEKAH

[25] = molecular target: T4, Low molecular weight phosphotyrosine protein phosphatase; assay: LMPTP phosphatase inhibitors, dose response, biochemical, OMFP substrate, fluorescence intensity, set 2 (AID 743307); type: functional
[26] = A375 melanoma cell viability loss, dose response, counter-screen for MITF inhibitor project, CellTiter-Glo luminescence, dry powder, set 4 (AID 624364); type: functional, cell-based; conditions: A-375;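 note: A375 melanoma cells are MITF independent so this is a counter screen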
[27] = A375 melanoma cell cytotoxicity, dose response, counter-screen for MITF inhibitor project, CellTiter-Glo luminescence, dry powder, set 2 (AID 624489); type: functional, cell-based; conditions: A-375;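 note: actives are compounds lowering A375 viability meaning general cytotoxicity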
[28] = Vero cell cytotoxicity, dose response, cytotoxicity control for Vif-APOBEC3G degradation inhibitor project, Vero cells (AID 1117358); type: functional; conditions: Human immunodeficiency virus 1, Vero
[29] = HEK293T cell cytotoxicity, dose response, cytotoxicity control, CellTiter-Glo luminescence, dry powder, set 2 (AID 720595); type: functional, cell-based; conditions: HEK293
Nonstructural protein 1 = Nonstructural protein 1 (Influenza A virus, UniProt Q194T2); type: functional, Influenza A virus (A/California/07/2009(H1N1))
Chain of Nonstructural protein 1 (Q194T2 whole entry): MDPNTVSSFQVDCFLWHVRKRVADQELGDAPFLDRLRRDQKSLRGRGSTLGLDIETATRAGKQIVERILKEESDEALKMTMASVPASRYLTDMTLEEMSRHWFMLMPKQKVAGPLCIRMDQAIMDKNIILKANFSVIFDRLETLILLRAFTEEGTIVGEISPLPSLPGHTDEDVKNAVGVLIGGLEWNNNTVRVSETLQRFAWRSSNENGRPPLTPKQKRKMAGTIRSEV

[30] = Luminescence-based counterscreen assay for KLF5 inhibitors: dose response cell-based high throughput screening assay to identify cytotoxic compounds using the IEC-6 intestinal epithelial cell line. [Related pubchem assays: 1700 (Primary screen.), 1834 (Confirmation screen.), 1858 (Summary AID.), 1905 (Counterscreen.)]; type: functional
[31] = HeLa cell cytotoxicity, dose response, cytotoxicity control, CellTiter-Glo luminescence, dry powder, set 2 (AID 720593); type: functional, cell-based
[32] = cytotoxicity in HEK-293T cells, dose response, cytotoxicity control for TCR NF-kB inhibitor project, luminescence, T-cell screen hits (AID 489026); type: functional, cell-based;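 note: cells exposed to compound about 14 hours before the viability readout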
[33] = growth suppression of beta-catenin-knockout colon cells, dose response, cell-based, HCT116, human colon tumor (AID 1045); type: functional;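 note: HCT116 colon tumor cells with beta catenin knocked out; cells exposed to compound for 60 hours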
[34] = C. albicans growth with fluconazole, confirmation, fluorescence, retest (AID 2467); type: functional, cell-based
[35] = growth suppression of PTEN-null colon cells, dose response, cell-based, HCT116 PTEN knockout (AID 1047); type: functional;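 note: HCT116 colon tumor cells with PTEN knocked out; cells exposed to compound for 60 hours before readout; potency for loss of cell viability measured by luminescence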
[36] = molecular target: T5, Microphthalmia-associated transcription factor (Homo sapiens, UniProt O75030); assay: TRPM1 promoter luciferase signal decrease, dose response, MITF inhibitor project, cell-based, SK-MEL-5, cherry-picked, set 3 (AID 493073); type: functional
T5 sequence (O75030 whole entry): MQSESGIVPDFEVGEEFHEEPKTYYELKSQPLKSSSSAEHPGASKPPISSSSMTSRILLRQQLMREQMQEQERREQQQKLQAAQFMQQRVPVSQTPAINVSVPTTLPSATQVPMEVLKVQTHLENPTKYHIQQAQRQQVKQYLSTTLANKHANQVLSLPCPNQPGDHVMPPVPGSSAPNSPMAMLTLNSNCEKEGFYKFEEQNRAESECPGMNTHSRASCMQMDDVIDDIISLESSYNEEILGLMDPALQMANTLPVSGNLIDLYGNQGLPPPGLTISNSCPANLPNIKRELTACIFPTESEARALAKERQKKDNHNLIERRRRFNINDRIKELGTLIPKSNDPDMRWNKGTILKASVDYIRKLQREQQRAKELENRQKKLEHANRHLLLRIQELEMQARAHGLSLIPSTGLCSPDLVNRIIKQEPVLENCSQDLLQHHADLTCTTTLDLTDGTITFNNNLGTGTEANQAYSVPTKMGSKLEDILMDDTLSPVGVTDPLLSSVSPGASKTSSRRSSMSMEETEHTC

[37] = inhibitors of PGC1a acetylation in cells, dose response, cell-based, cherry-picked samples (AID 720514); type: functional;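 note: potency may reflect raised or lowered acetylation signal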
Cytochrome P450 3A4 = Cytochrome P450 3A4 (Homo sapiens, UniProt P08684);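 note: CYP3A4 tested as one member of a cytochrome P450 panel screen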
Chain of Cytochrome P450 3A4 (P08684 whole entry): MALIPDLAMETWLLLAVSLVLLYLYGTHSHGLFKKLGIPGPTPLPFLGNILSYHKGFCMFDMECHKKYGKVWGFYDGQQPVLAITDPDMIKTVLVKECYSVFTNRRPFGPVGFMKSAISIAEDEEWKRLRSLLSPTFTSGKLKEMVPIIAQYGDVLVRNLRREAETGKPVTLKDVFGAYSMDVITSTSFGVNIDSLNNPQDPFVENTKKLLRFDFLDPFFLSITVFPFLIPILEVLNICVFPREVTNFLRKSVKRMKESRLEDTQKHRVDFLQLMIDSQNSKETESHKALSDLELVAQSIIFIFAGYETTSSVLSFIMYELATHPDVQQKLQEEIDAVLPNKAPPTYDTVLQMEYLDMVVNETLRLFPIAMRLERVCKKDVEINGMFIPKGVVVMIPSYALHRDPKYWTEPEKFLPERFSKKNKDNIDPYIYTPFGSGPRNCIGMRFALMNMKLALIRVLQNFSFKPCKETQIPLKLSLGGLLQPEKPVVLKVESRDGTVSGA

[38] = NIH-3T3 fibroblast cytotoxicity, dose response, cytotoxicity control, cell-based, fluorescence, Alamar Blue, secondary assay (AID 2327); type: functional;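 note: NIH-3T3 mouse fibroblasts cultured with fluconazole at 8 µg/mL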
Cytochrome P450 2C9 = Cytochrome P450 2C9 (Homo sapiens, UniProt P11712)
Chain of Cytochrome P450 2C9 (P11712 whole entry): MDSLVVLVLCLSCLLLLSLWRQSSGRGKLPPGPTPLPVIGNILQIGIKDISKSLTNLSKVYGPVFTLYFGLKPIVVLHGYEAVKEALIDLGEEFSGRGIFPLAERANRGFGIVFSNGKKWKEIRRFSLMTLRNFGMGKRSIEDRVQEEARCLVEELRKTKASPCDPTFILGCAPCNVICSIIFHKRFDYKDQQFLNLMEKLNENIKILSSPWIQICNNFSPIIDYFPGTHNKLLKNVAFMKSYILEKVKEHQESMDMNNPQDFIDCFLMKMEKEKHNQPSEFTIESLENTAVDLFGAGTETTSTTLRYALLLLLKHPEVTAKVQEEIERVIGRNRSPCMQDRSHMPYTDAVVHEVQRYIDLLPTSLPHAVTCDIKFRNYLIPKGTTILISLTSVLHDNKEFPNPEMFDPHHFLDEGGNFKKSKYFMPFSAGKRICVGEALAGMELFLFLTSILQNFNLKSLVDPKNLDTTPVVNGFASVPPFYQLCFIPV

T1 sequence (P02675 whole entry, the tested form may be a part): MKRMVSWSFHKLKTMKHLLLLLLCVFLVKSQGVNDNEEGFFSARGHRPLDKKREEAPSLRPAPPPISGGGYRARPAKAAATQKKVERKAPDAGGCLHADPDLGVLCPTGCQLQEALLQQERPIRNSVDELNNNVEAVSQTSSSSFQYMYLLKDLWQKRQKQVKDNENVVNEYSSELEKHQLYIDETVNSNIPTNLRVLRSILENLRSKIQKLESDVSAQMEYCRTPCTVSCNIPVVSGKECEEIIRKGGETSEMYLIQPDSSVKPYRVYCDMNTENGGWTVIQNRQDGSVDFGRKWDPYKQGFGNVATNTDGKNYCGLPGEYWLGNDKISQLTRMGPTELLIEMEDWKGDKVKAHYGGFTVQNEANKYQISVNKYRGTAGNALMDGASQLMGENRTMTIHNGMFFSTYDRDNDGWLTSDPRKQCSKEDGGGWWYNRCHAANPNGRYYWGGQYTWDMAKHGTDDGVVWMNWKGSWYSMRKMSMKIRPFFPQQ

CCOC(=O)C1(C)C(=O)CC2c3nc4ccccc4cc3CN2C1=O (stereo not drawn)
IC50 (Fibrinogen beta chain [1]): > 83.2 µM (inactive)
IC50 (Fibrinogen beta chain [2]): 9.24 µM (active)

COc1ccc(CNC(=O)CSc2n[nH]c3c4cc(F)ccc4nc-3n2)cc1
IC50 [3]: > 1.54 µM (active)
IC50 [4]: > 83.3 µM (inactive)
IC50 [5]: 83.3 µM (inactive)
IC50 [6]: 4.39 µM (active)
IC50 [7]: 0.879 µM (active)

CC1CN(Cc2ccccc2)c2nc3c(c(=O)n(CC(N)=O)c(=O)n3C)n2C1 (stereo not drawn)
EC50 (Transthyretin): > 167 µM (inactive)

CC(=O)c1ccc(N2CCN(C(=O)c3cc(Cl)c4c(c3)OCO4)CC2)cc1
AC50 [8]: 12.2 µM (active)

CN(CC(=O)Nc1ccc(F)cc1)C(=O)c1cc(-c2ccco2)nc2ccccc12
IC50 [9]: 5.11 µM (active)
CC50 [10]: > 40 µM (active)
IC50 (Protein Tat): > 100 µM (active)

Cc1onc(C(=O)N2CCN(C(c3ccc(Cl)cc3)c3ccc(Cl)cc3)CC2)c1[N+](=O)[O-]
AC50 [11]: 0.723 µM (active)
AC50 [12]: 0.234 µM (active)
AC50 [13]: 0.199 µM (active)
AC50 [14]: 1.3 µM (active)
AC50 [15]: 0.181 µM (active)

c1ccc(CSc2nnc(-c3ccccc3)s2)cc1
AC50 [16]: 33.8 µM (active)

Cc1nc(N2[C@H](CO)[C@H](c3ccccc3)[C@H]2CNCC2CCC2)sc1C
AC50 [17]: 1.47 µM (active)
AC50 [18]: 1.34 µM (active)
AC50 [19]: 29.3 µM (active)
AC50 [20]: 1.8 µM (active)
AC50 [21]: 0.881 µM (active)
AC50 [22]: > 100 µM (inactive)

CCn1nnc(CCc2ccc(N3CCCC3)cc2)n1
AC50 [23]: > 160 µM (inactive)

CN1CCN(c2nc(-c3ccccc3)nc3ccccc23)CC1
IC50 [24]: > 80 µM (inactive)
IC50 [25]: > 80 µM (inactive)

COc1ccc(C2=C(NC(=O)c3ccccc3OC)C(=O)c3ccccc3C2=O)cc1
AC50 [26]: 38.1 µM (active)
AC50 [27]: 32.4 µM (active)

COc1cc(C(=O)NCc2nnc(SCC(=O)Nc3nc4ccc(C)cc4s3)o2)cc(OC)c1OC
CC50 [28]: > 40 µM (active)

O=C(CSc1n[nH]c(-c2ccccn2)n1)Nc1ccc(Cl)cc1
AC50 [29]: 2.2 µM (active)
IC50 (Nonstructural protein 1): 8.79 µM (active)
IC50 [30]: 5.14 µM (active)
AC50 [31]: 47.5 µM (active)

Cn1c(SC2=CS(=O)(=O)c3ccccc32)nc2ccccc21
IC50 [32]: > 80 µM (inactive)
EC50 [33]: 1.97 µM (active)
EC50 [34]: > 38 µM (not active)
EC50 [35]: 2.87 µM (active)
AC50 [36]: 6.72 µM (active)
AC50 [37]: 11.3 µM (active)
AC50 (Cytochrome P450 3A4): 39.8 µM (inconclusive)
EC50 [38]: 7.76 µM (inconclusive)
AC50 (Cytochrome P450 2C9): 28.2 µM (inconclusive)
